Laboratory results published in the METLIN SMRT retention time set (Domingo-Almenara et al. 2019).

Assay: gradient 5% acetonitrile 3 min, to 50% in 2 min, to 85% in 15 min, held 3 min, 100 µL/min
Settings: column: Zorbax Extend-C18 2.1 x 50 mm; eluents: water / acetonitrile, 0.1% formic acid
Method in brief: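 The system's dead and dwell volumes were 40 μL and 900 μL, with a Zorbax Extend-C18 column (2.1 × 50 mm, 1.8 μm) run at 100 μL/min in water and acetonitrile containing 0.1% formic acid each. Pure standards were analyzed in mixtures of ~100 molecules by HPLC–quadrupole time-of-flight mass spectrometry in positive and negative ionization mode. Retention time was assigned from computationally picked, manually inspected adduct peaks.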

Row | RP-LC retention time [s] | SMILES
1 | 759 | O=C(CCSc1ccccc1)NCCn1cnc(-c2ccc(F)cc2)cc1=O
2 | 826 | Cc1ccc(-c2noc(-c3cccc(S(=O)(=O)NCCCN4CCC(C)CC4)c3)n2)cc1
3 | 576 | CC(=O)N1CCN(c2nc3c(s2)CC(C(=O)NCc2cc(C)ccc2C)CC3)CC1 (configuration not stated)
4 | 639 | Cc1c(C(=O)O)nnn1-c1ccc2c(c1)OCO2
5 | 581 | Cn1c(=O)c(N2CCCC(C(=O)NCCCN3CCCCCC3)C2)nc2cccnc21 (configuration not stated)
6 | 1090 | O=c1ccc(-c2ccc(F)cc2)nn1Cc1nc(-c2cccc(Cl)c2)no1
7 | 784 | CC(=O)N1CCc2sc(C(=O)N3CCN(c4ccccc4F)CC3)cc2C1
8 | 1010 | CCC(C(=O)NC1(c2nc(-c3cccnc3)no2)CCCCC1)c1ccccc1 (configuration not stated)
9 | 834 | Cn1cc(C(=O)NCc2ccccc2)c(S(=O)(=O)N2CCSCC2)n1
10 | 844 | O=S(=O)(c1ccc(F)cc1F)N1CCN(Cc2cccc(F)c2)C2(CCOCC2)C1
11 | 735 | Cc1cccc(S(=O)(=O)N2CCC(n3cnnc3C(C)C)CC2)c1
12 | 1000 | CN(C)S(=O)(=O)c1cccc(-c2nnc(-c3ccc(Cl)cc3)o2)c1
13 | 1180 | O=C(Nc1ccc(-c2nc(-c3ccccc3)no2)cc1)c1ccc(Br)o1
14 | 874 | COc1cccc(CNC(=O)C2CCCN(S(=O)(=O)c3cc(-c4noc(C)n4)cs3)C2)c1 (configuration not stated)
15 | 649 | CCC(C(=O)N1CCN(c2cc(-c3ccccc3)ncn2)CC1)c1ccccc1 (configuration not stated)
16 | 572 | COc1ccccc1N1CCN(CCNC(=O)Cc2ccc(Cl)cc2)CC1
17 | 723 | CCc1ccccc1NC(=O)C1CC(=O)N(c2ccc3oc(C)nc3c2)C1 (configuration not stated)
18 | 709 | CC(C)NC(=O)C1CCCN(c2nc3ncn(CC(=O)NC4CCc5ccccc54)c(=O)c3s2)C1 (configuration not stated)

Row | RP-LC retention time [s] | SMILES
19 | 939 | Cc1ccc(-n2ncc3c(NCc4ccc5c(c4)OCO5)ncnc32)cc1
20 | 642 | O=C(NC1CCCCC1)c1ccn[nH]1
21 | 1060 | O=c1ccc(-c2ccc3c(c2)OCO3)nn1CCc1nc(-c2cccc(Br)c2)no1
22 | 840 | COC(=O)CNC(=O)N1CCCCCC1c1cccc(C)c1 (configuration not stated)
23 | 600 | Cc1nn(C)c(C)c1CNC(=O)c1cccc2[nH]cc(CN3CCCC3)c12
24 | 900 | CCc1noc(-c2cc(=O)n(CC(=O)NCc3ccccc3OC)c3ccccc23)n1
25 | 714 | CCc1noc(NC(C)=O)c1-c1ccc(OC)c(S(=O)(=O)N2CCC3(CC2)OCCO3)c1
26 | 613 | O=C(CNC(=O)c1cccc(F)c1)Nc1nc2ccccc2[nH]1
27 | 713 | O=C(NC1CCCC1)C1CCCN(c2ncnc3c2oc2ccccc23)C1 (configuration not stated)
28 | 990 | CCN(CC)C(=O)c1cnc2snc(C)c2c1N1CCC(C(=O)Nc2ccc(Br)cc2)CC1
29 | 620 | CC(=O)N1c2ccc(S(=O)(=O)N3CCCC3)cc2CC1C(=O)NCc1ccc(N(C)C)cc1 (configuration not stated)
30 | 706 | COc1cc(OC)c(NC(=O)NCC(c2cccnc2)c2c[nH]c3ccccc23)cc1Cl (configuration not stated)
31 | 738 | CCCCN(CCCC)CCCOC(=O)c1ccc(N)cc1
32 | 804 | COc1ccc(C)cc1NC(=O)Cn1nc2cc(-c3ccccn3)nc(C)n2c1=O
33 | 860 | Cc1ccc2c(c1)C(C)(C)C(=O)N2CC(=O)N1CCCCC1
34 | 684 | CCCN(C)c1nccn2c(=O)n(CC(=O)Nc3cccc(C)c3C)nc12
35 | 868 | CCC(C)NC(=O)Cn1nc2c3cc(-c4ccc(Cl)cc4)nn3ccn2c1=O (configuration not stated)

Row | SMILES | RP-LC retention time [s]
36 | Cn1nc(C(=O)NCC2(C)CCOCC2)c2ccccc21 | 763
37 | Cc1cc(OCC(=O)N[C@@H](C)C(=O)O)c2c3c(c(=O)oc2c1)CCCC3 | 746
